Laboratory results reported in PubChem BioAssay (NCI).
Values joined by “and” are separate entries in the source; they are usually repeats but may differ in a detail not shown here. Equal entries are not always repeated.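 Results reflect a 48-hour exposure of cells in 96-well plates to compound at five concentrations. GI50: concentration for 50% inhibition of growth. TGI marks complete inhibition of growth.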

Experiments:
Experiment in all cases: NCI tumour cell line growth inhibition, 48 h
PC-3 prostate = test system: PC-3 prostate
OVCAR-5 ovarian = test system: OVCAR-5 ovarian
RXF 393 renal = test system: RXF 393 renal
OVCAR-4 ovarian = test system: OVCAR-4 ovarian
HCC-2998 colon = test system: HCC-2998 colon
NCI-H23 lung = test system: NCI-H23 lung
SN12C renal = test system: SN12C renal
MDA-N = test system: MDA-N
UACC-62 melanoma = test system: UACC-62 melanoma
MDA-MB-231 breast = test system: MDA-MB-231 breast
SF-295 CNS = test system: SF-295 CNS
SK-MEL-28 melanoma = test system: SK-MEL-28 melanoma
SF-268 CNS = test system: SF-268 CNS
SNB-19 CNS = test system: SNB-19 CNS

Structure (SMILES) | TGI (PC-3 prostate) [µM] | TGI (OVCAR-5 ovarian) [µM] | TGI (RXF 393 renal) [µM] | TGI (OVCAR-4 ovarian) [µM] | TGI (HCC-2998 colon) [µM] | TGI (NCI-H23 lung) | TGI (SN12C renal) [µM] | TGI (MDA-N) [µM] | TGI (UACC-62 melanoma) [µM] | TGI (MDA-MB-231 breast) [µM] | TGI (SF-295 CNS) [µM] | TGI (SK-MEL-28 melanoma) [µM] | TGI (SF-268 CNS) | TGI (SNB-19 CNS) [µM] | GI50 (SF-268 CNS) | GI50 (RXF 393 renal) | GI50 (NCI-H23 lung) | GI50 (SN12C renal) | GI50 (SNB-19 CNS) | GI50 (MDA-MB-231 breast)
O=C1CCCc2ccc3c(c21)CC1(Cc2ccccc2C1)C3 | > 100 | > 100 | > 100 | 98.8 | > 100 | > 100 µM | > 100 | 67.2 | > 100 | > 100 | > 100 | – | – | – | – | – | – | – | – | –
CC(O)[C@@]1(c2ccccc2)CC2(CCN(C)CC2)O[C@H]1C (stereo partly drawn) | > 100 | > 100 | > 100 | > 100 | > 100 | > 100 µM | – | – | > 100 | > 100 | > 100 | > 100 | > 100 µM | > 100 | – | – | – | – | – | –
CSCCC(C(=O)O)N(CC1(O)OCC(O)C(O)C1O)N=O (stereo not drawn) | – | > 100 | > 100 | – | > 100 | > 100 µM | – | – | > 100 | – | – | > 100 | – | – | – | – | – | – | – | –
CCOC(=O)CNc1nnnn1C1OC(CO)C(O)C1O (stereo not drawn) | – | > 100 | > 100 | – | > 100 | – | > 100 | – | > 100 | – | > 100 | – | > 100 µM | – | – | – | – | – | – | –
COc1cc(C2c3c(ccc4ccccc34)C(=O)C3CCC(=O)N32)cc(OC)c1O (stereo not drawn) | > 25 | > 25 | > 25 | > 25 | – | > 25 µM | > 25 | > 25 | > 25 | – | > 25 | > 25 | – | > 25 | – | – | – | – | – | –
CC1CN=C(Nc2ccc(F)c(Cl)c2)S1 (stereo not drawn) | > 100 | > 100 | > 100 | – | > 100 | > 100 µM | – | > 100 | > 100 | > 100 | > 100 | > 100 | > 100 µM | > 100 | – | – | – | – | – | –
C1CN2CCNCCN(CCN1)CC2 | > 100 | > 100 | > 100 | > 100 | – | > 100 µM | > 100 | > 100 | > 100 | > 100 | > 100 | > 100 | > 100 µM | > 100 | – | – | – | – | – | –
S=C=NC1CCC(c2cc3ccccc3s2)(N2CCCCC2)CC1 (stereo not drawn) | – | 3.7 | 3.16 | 3.7 | 3.22 | 3.85 µM | 3.77 | 3.73 | 3.6 | – | 7.39 | 3.39 | 4.3 µM | 7.79 | – | – | – | – | – | –
CC1(C)OC(=O)C(Cc2ccccc2)(Cc2ccccc2)C(=O)O1 | > 100 | > 100 | > 100 | > 100 | > 100 | > 100 µM | > 100 | > 100 | > 100 | > 100 | > 100 | > 100 | > 100 µM | – | – | – | – | – | – | –
N/C(=N\S(=O)(=O)c1cc(Cl)c(Oc2ccc([N+](=O)[O-])cc2Cl)c(Cl)c1)Nc1ccc(Cl)cc1 | 30.5 | 53.6 | 31.8 | 30.4 | – | 32.1 µM | 33.3 | 34.8 | 25.6 | 32.9 | 39.5 | 33 | > 100 µM | 33.6 | – | – | – | – | – | –
CCCN(CCC)C1=Nc2ccccc2-n2cnnc2C1 | – | > 100 | > 100 | > 100 | – | > 100 µM | > 100 | – | > 100 | – | > 100 | > 100 | > 100 µM | > 100 | – | – | – | – | – | –
O=P(O)(CN1CCN(CP(=O)(O)c2ccccc2)CCN(CP(=O)(O)c2ccccc2)CC1)c1ccccc1 | – | > 100 | > 100 | > 100 | > 100 | > 100 µM | – | > 100 | – | – | > 100 | > 100 | > 100 µM | > 100 | – | – | – | – | – | –
COc1cc2c[n+](C)c3c4cc(OC)c(OC)cc4ccc3c2cc1OC | > 100 | > 100 | > 100 | > 100 | > 100 | > 100 µM and 77 µM | > 100 | – | > 100 | > 100 | > 100 | > 100 | > 100 µM and 37.6 µM | > 100 | 22.6 µM and 3.32 µM | > 100 µM and 28.5 µM | 40.8 µM and 19.5 µM | 30.4 µM and 3.98 µM | 80 µM and 13.5 µM | > 100 µM and 18.6 µM
CCOC(=O)C1(Br)S(=O)(=O)OCCOS1(=O)=O | – | > 100 | > 100 | > 100 | > 100 | > 100 µM | > 100 | – | > 100 | – | > 100 | > 100 | > 100 µM | > 100 | – | – | – | – | – | –
COC(=O)C1=C(CCC[C@H](C)O[Si](C)(C)C(C)(C)C)NC(=O)N2[C@@H](CCO)CC[C@H]12 | – | 33.7 | 27.5 | 38.2 | – | 27.2 µM | 29.2 | – | – | 31.9 | 25.1 | 35.5 | 28.6 µM | 29 | – | – | – | – | – | –
Cc1cc2nc(N3C(=O)/C(=C/c4ccc(N(C)C)cc4)N=C3c3ccccc3)sc2cc1C | 43.5 | 84.2 | 57.9 | > 100 | 37.6 | – | 57.8 | 33.8 | > 100 | 96 | > 100 | > 100 | > 100 µM | > 100 | – | – | – | – | – | –
COc1cc2c[n+](C)c3c(c2cc1OC)Cc1cc2c(cc1-3)OCO2 | > 100 | > 100 | – | > 100 | – | > 100 µM | > 100 | > 100 | > 100 | > 100 | > 100 | > 100 | > 100 µM | > 100 | – | – | – | – | – | –
O=c1c2cc(I)ccc2nc(-c2cccs2)n1/N=C/c1ccccc1 | > 100 | > 100 | > 100 | > 100 | > 100 | > 100 µM | > 100 | – | > 100 | – | > 100 | > 100 | > 100 µM | > 100 | – | – | – | – | – | –
[N-]=[N+]=CC(=O)CCC(=O)N(c1ccccc1)c1ccccc1 | > 10 | > 10 | > 10 | – | – | > 10 µM | > 10 | > 10 | – | > 10 | > 10 | > 10 | > 10 µM | > 10 | – | – | – | – | – | –
